The NIST ThermoML archive (doi:10.1016/j.fluid.2008.02.021)

Assays:
[1] = for vapor or sublimation pressure: Liquid, Closed cell (Static) method; for Normal melting temperature: Crystal
[2] = excess molar enthalpy (molar enthalpy of mixing); xn = mol fraction of the nth substance listed; details: Liquid, Flow calorimetry

CCCCCCC(C)=O [2-octanone]
[1]
Details | vapor or sublimation pressure [kPa]
323.15 K | 0.8706
363.15 K | 6.397

Details | Normal melting temperature [°C]
[1] | -19.7

CCCCCCC(C)=O [2-octanone] + CCCCCCO
excess molar enthalpy [kcal/mol], [2], 1617 kPa
Details | 363.15 K | 413.15 K
x2 = 0.062 | 0.0819 | 0.059
x2 = 0.122 | 0.152 | 0.112
x2 = 0.181 | 0.21 | 0.157
x2 = 0.238 | 0.257 | 0.194
x2 = 0.294 | 0.292 | 0.222
x2 = 0.349 | 0.319 | 0.244
x2 = 0.402 | 0.335 | 0.259
x2 = 0.455 | 0.344 | 0.268
x2 = 0.506 | 0.345 | 0.271
x2 = 0.556 | – | 0.269
x2 = 0.557 | 0.341 | –
x2 = 0.605 | 0.327 | 0.26
x2 = 0.652 | 0.31 | 0.247
x2 = 0.699 | 0.287 | 0.229
x2 = 0.745 | 0.259 | 0.206
x2 = 0.79 | 0.227 | 0.181
x2 = 0.833 | 0.19 | 0.152
x2 = 0.876 | 0.148 | 0.12
x2 = 0.918 | 0.102 | 0.0838
x2 = 0.96 | 0.0525 | 0.0429

OC1CCCCC1 [cyclohexanol]
[1]
Details | Normal melting temperature [°C] | vapor or sublimation pressure [kPa]
323.15 K | – | 0.7399
363.15 K | – | 6.882
visual observation | 24.1 | –

OC1CCCCC1 [cyclohexanol] + O=C1CCCCC1
[2]
Details | excess molar enthalpy [kcal/mol]
363.15 K, 1651 kPa, x2 = 0.051 | 0.065
363.15 K, 1651 kPa, x2 = 0.102 | 0.124
363.15 K, 1651 kPa, x2 = 0.153 | 0.175
363.15 K, 1651 kPa, x2 = 0.204 | 0.22
363.15 K, 1651 kPa, x2 = 0.254 | 0.255
363.15 K, 1651 kPa, x2 = 0.305 | 0.285
363.15 K, 1651 kPa, x2 = 0.355 | 0.307
363.15 K, 1651 kPa, x2 = 0.406 | 0.321
363.15 K, 1651 kPa, x2 = 0.456 | 0.33
363.15 K, 1651 kPa, x2 = 0.506 | 0.334
363.15 K, 1651 kPa, x2 = 0.555 | 0.328
363.15 K, 1651 kPa, x2 = 0.605 | 0.316
363.15 K, 1651 kPa, x2 = 0.655 | 0.299
363.15 K, 1651 kPa, x2 = 0.705 | 0.275
363.15 K, 1651 kPa, x2 = 0.754 | 0.244
363.15 K, 1651 kPa, x2 = 0.803 | 0.208
363.15 K, 1651 kPa, x2 = 0.853 | 0.164
363.15 K, 1651 kPa, x2 = 0.902 | 0.115
363.15 K, 1651 kPa, x2 = 0.951 | 0.0595
413.15 K, 1582 kPa, x2 = 0.051 | 0.0388
413.15 K, 1582 kPa, x2 = 0.102 | 0.0744
413.15 K, 1582 kPa, x2 = 0.153 | 0.106
413.15 K, 1582 kPa, x2 = 0.203 | 0.134
413.15 K, 1582 kPa, x2 = 0.254 | 0.157
413.15 K, 1582 kPa, x2 = 0.304 | 0.175
413.15 K, 1582 kPa, x2 = 0.355 | 0.19
413.15 K, 1582 kPa, x2 = 0.405 | 0.199
413.15 K, 1582 kPa, x2 = 0.455 | 0.204
413.15 K, 1582 kPa, x2 = 0.505 | 0.206
413.15 K, 1582 kPa, x2 = 0.555 | 0.202
413.15 K, 1582 kPa, x2 = 0.605 | 0.195
413.15 K, 1582 kPa, x2 = 0.655 | 0.183
413.15 K, 1582 kPa, x2 = 0.704 | 0.168
413.15 K, 1582 kPa, x2 = 0.754 | 0.148
413.15 K, 1582 kPa, x2 = 0.803 | 0.126
413.15 K, 1582 kPa, x2 = 0.853 | 0.0985
413.15 K, 1582 kPa, x2 = 0.902 | 0.0681
413.15 K, 1582 kPa, x2 = 0.951 | 0.035

O=C1CCCCC1 [cyclohexanone]
[1]
Details | Normal melting temperature [°C] | vapor or sublimation pressure [kPa]
323.15 K | – | 2.23
363.15 K | – | 13.05
visual observation | -27.2 | –

CCCCCCO [hexan-1-ol]
[1]
Details | vapor or sublimation pressure [kPa]
323.15 K | 0.7226
363.15 K | 7.229

Details | Normal melting temperature [°C]
[1] | -44
